We go through 23 compounds from patent publication US12503473B2, “Triazolopyrimidine compounds and their use in treating cancer” (Dizal (Jiangsu) Pharmaceutical Co., Ltd., priority 2018, dated 2025).

One experiment concerns the target T1, MCT4 (Homo sapiens, UniProt O15427).
T1 sequence (O15427 1-465): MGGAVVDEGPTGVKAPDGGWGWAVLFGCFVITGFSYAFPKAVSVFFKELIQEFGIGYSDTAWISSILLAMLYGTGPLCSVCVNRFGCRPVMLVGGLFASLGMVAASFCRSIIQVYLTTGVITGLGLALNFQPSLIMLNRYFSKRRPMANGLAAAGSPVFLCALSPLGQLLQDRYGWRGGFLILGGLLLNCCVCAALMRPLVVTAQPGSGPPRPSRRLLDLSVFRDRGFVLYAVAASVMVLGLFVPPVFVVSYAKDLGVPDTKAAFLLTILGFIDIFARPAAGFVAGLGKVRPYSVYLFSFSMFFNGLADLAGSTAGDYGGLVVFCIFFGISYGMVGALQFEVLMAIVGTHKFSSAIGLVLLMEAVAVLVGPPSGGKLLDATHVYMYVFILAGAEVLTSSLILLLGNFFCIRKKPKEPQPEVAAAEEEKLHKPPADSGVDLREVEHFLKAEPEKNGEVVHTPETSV
The experiment can be described thus: Assay (a): lactate efflux from SK-Br-3 cells (lactate in media, 4 h). The class given is cell-based. Details: a natively glycolytic human breast adenocarcinoma line predominantly expressing MCT4; host or cells: SK-Br-3. Particulars: mean of at least three repeats (Example 32, marked *, two repeats), read-out: MCT4 lactate efflux pIC50 (SKBR3) (converted). The protocol: Assay plates were lidded and incubated for 4 hours at 37° C. and 5% CO2.
Consider `Cc1nc2nc(C)c(C[C@@H]3CCN(c4ccc(-c5ccc(CN6CCOCC6)nc5)cn4)C3)c(C)n2n1` [Example 1, (R)-4-((6′-(3-((2,5,7-trimethyl-[1,2,4]triazolo[1,5-a]pyrimidin-6-yl)methyl)pyrrolidin-1-yl)-[3,3′-bipyridin]-6-yl)methyl)morpholine], for which the IC50 was 0.316 nM.
As for `Cc1nc2nc(C)c(C[C@@H]3CCN(c4ccc(-c5ccc(CN6CCN(C)CC6)nc5)cn4)C3)c(C)n2n1` [Example 4, (R)-2,5,7-trimethyl-6-((1-(6′-((4-methylpiperazin-1-yl)methyl)-[3,3′-bipyridin]-6-yl)pyrrolidin-3-yl)methyl)-[1,2,4]triazolo[1,5-a]pyrimidine], the IC50 was 0.631 nM.
Still for that read-out and setting: in the case of `Cc1nc2nc(C)c(C[C@@H]3CCN(c4ccc(-c5ccc(CN6CCN(C)CC6)cc5)cn4)C3)c(C)n2n1` [Example 5, (R)-2,5,7-trimethyl-6-((1-(5-(4-((4-methylpiperazin-1-yl)methyl)phenyl)pyridin-2-yl)pyrrolidin-3-yl)methyl)-[1,2,4]triazolo[1,5-a]pyrimidine] it was 0.501 nM.
Same read-out and setting: as for `Cc1nc2nc(C)c(C[C@@H]3CCN(c4ncc(-c5ccc(CN6CCOCC6)cc5)cn4)C3)c(C)n2n1` [Example 6, (R)-4-(4-(2-(3-((2,5,7-trimethyl-[1,2,4]triazolo[1,5-a]pyrimidin-6-yl)methyl)pyrrolidin-1-yl)pyrimidin-5-yl)benzyl)morpholine], the figure is 0.631 nM; as for `Cc1nc2nc(C)c(C[C@@H]3CCN(c4ccc(-c5cnc(CN6CCOCC6)cn5)nc4)C3)c(C)n2n1` [Example 7, (R)-4-((5-(5-(3-((2,5,7-trimethyl-[1,2,4]triazolo[1,5-a]pyrimidin-6-yl)methyl)pyrrolidin-1-yl)pyridin-2-yl)pyrazin-2-yl)methyl)morpholine], 0.316 nM.
Still for that read-out and setting: in the case of `Cc1nc2nc(C)c(C[C@@H]3CCN(c4ccc(-c5ccc(CN6CCN(C)CC6)cc5)nc4)C3)c(C)n2n1` [Example 8, (R)-2,5,7-trimethyl-6-((1-(6-(4-((4-methylpiperazin-1-yl)methyl)phenyl)pyridin-3-yl)pyrrolidin-3-yl)methyl)-[1,2,4]triazolo[1,5-a]pyrimidine] it was 0.631 nM.
Consider `COc1cc(CN2CCN(C)CC2)ccc1-c1ncc(N2CC[C@@H](Cc3c(C)nc4nc(C)nn4c3C)C2)cn1` [Example 12, (R)-6-((1-(2-(2-methoxy-4-((4-methylpiperazin-1-yl)methyl)phenyl)pyrimidin-5-yl)pyrrolidin-3-yl)methyl)-2,5,7-trimethyl-[1,2,4]triazolo[1,5-a]pyrimidine], for which the IC50 is 3.98 nM.
Regarding `Cc1nc2nc(C)c(C[C@@H]3CCN(c4cnc(-c5ccc(CN6CCN(C)CC6)cc5C)nc4)C3)c(C)n2n1` [Example 13, (R)-2,5,7-trimethyl-6-((1-(2-(2-methyl-4-((4-methylpiperazin-1-yl)methyl)phenyl)pyrimidin-5-yl)pyrrolidin-3-yl)methyl)-[1,2,4]triazolo[1,5-a]pyrimidine], the IC50 is 2.51 nM.
Turning to `Cc1nc2nc(C)c(C[C@@H]3CCN(c4cnc(-c5ccc(CN6C[C@@H](C)N[C@@H](C)C6)cc5)nc4)C3)c(C)n2n1` [Example 14, 6-(((R)-1-(2-(4-(((3R,5S)-3,5-dimethylpiperazin-1-yl)methyl)phenyl)pyrimidin-5-yl)pyrrolidin-3-yl)methyl)-2,5,7-trimethyl-[1,2,4]triazolo[1,5-a]pyrimidine], the IC50 was 2 nM.
In the case of `Cc1nc2nc(C)c(C[C@@H]3CCN(c4cnc(-c5ccc(CN6CCN(CC(=O)N(C)C)CC6)cc5)nc4)C3)c(C)n2n1` [Example 15, (R)—N,N-dimethyl-2-(4-(4-(5-(3-((2,5,7-trimethyl-[1,2,4]triazolo[1,5-a]pyrimidin-6-yl)methyl)pyrrolidin-1-yl)pyrimidin-2-yl)benzyl)piperazin-1-yl)acetamide], the IC50 was 1 nM.
For the compound `CC(=O)N1CCN(Cc2ccc(-c3ncc(N4CC[C@@H](Cc5c(C)nc6nc(C)nn6c5C)C4)cn3)cc2)CC1` [Example 17, (R)-1-(4-(4-(5-(3-((2,5,7-trimethyl-[1,2,4]triazolo[1,5-a]pyrimidin-6-yl)methyl)pyrrolidin-1-yl)pyrimidin-2-yl)benzyl)piperazin-1-yl)ethanone], the IC50 is 0.251 nM.
The same measure, in the same setting: in the case of `COCCN1CCN(Cc2ccc(-c3ncc(N4CC[C@@H](Cc5c(C)nc6nc(C)nn6c5C)C4)cn3)cc2)CC1` [Example 18, (R)-6-((1-(2-(4-((4-(2-methoxyethyl)piperazin-1-yl)methyl)phenyl)pyrimidin-5-yl)pyrrolidin-3-yl)methyl)-2,5,7-trimethyl-[1,2,4]triazolo[1,5-a]pyrimidine] it was 0.631 nM.
The same measure, in the same setting: in the case of `Cc1nc2nc(C)c(C[C@@H]3CCN(c4ccc(-c5cnc(CN6CCN(C)CC6)nc5)cc4)C3)c(C)n2n1` [Example 22, (R)-2,5,7-trimethyl-6-((1-(4-(2-((4-methylpiperazin-1-yl)methyl)pyrimidin-5-yl)phenyl)pyrrolidin-3-yl)methyl)-[1,2,4]triazolo[1,5-a]pyrimidine] it was 1 nM; in that of `Cc1nc2nc(C)c(C[C@@H]3CCN(c4ccc(-c5ncc(CN6CCN(C)CC6)cn5)cc4)C3)c(C)n2n1` [Example 25, (R)-2,5,7-trimethyl-6-((1-(4-(5-((4-methylpiperazin-1-yl)methyl)pyrimidin-2-yl)phenyl)pyrrolidin-3-yl)methyl)-[1,2,4]triazolo[1,5-a]pyrimidine], 0.794 nM.
For the compound `Cc1nc2nc(C)c(C[C@@H]3CCN(c4ccc(-c5cnc(CN6CCOCC6)nc5)cc4)C3)c(C)n2n1` [Example 28, (R)-4-((5-(4-(3-((2,5,7-trimethyl-[1,2,4]triazolo[1,5-a]pyrimidin-6-yl)methyl)pyrrolidin-1-yl)phenyl)pyrimidin-2-yl)methyl)morpholine], the IC50 was 0.251 nM.
The same measure, in the same setting: as for `Cc1nc2nc(C)c(C[C@@H]3CCN(c4cnc(-c5ccc(CN6C[C@@H](C)N(C)[C@@H](C)C6)cc5)cn4)C3)c(C)n2n1` [Example 32, 2,5,7-trimethyl-6-(((R)-1-(5-(4-(((3R,5S)-3,4,5-trimethylpiperazin-1-yl)methyl)phenyl)pyrazin-2-yl)pyrrolidin-3-yl)methyl)-[1,2,4]triazolo[1,5-a]pyrimidine], the figure is 1.26 nM; as for `Cc1nc2nc(C)c(C[C@@H]3CCN(c4cnc(-c5ccc(CN6CCN(C)[C@H](C)C6)cc5)cn4)C3)c(C)n2n1` [Example 33, 6-(((R)-1-(5-(4-(((R)-3,4-dimethylpiperazin-1-yl)methyl)phenyl)pyrazin-2-yl)pyrrolidin-3-yl)methyl)-2,5,7-trimethyl-[1,2,4]triazolo[1,5-a]pyrimidine], 2.51 nM.
As to `Cc1nc2nc(C)c(C[C@@H]3CCN(c4cnc(-c5ccc(CN6CCN(C)CC6)cn5)cn4)C3)c(C)n2n1` [Example 39, (R)-2,5,7-trimethyl-6-((1-(5-(5-((4-methylpiperazin-1-yl)methyl)pyridin-2-yl)pyrazin-2-yl)pyrrolidin-3-yl)methyl)-[1,2,4]triazolo[1,5-a]pyrimidine], the IC50 was 2.51 nM.
For the compound `Cc1nc2nc(C)c(C[C@@H]3CCN(c4cnc(-c5ccc(CN6CCC(CO)CC6)cc5)cn4)C3)c(C)n2n1` [Example 44, {1-[4-(5-{(3R)-3-[(2,5,7-trimethyl[1,2,4]triazolo[1,5-a]pyrimidin-6-yl)methyl]pyrrolidin-1-yl}pyrazin-2-yl)benzyl]piperidin-4-yl}methanol], the IC50 is 0.631 nM.
With `Cc1nc2nc(C)c(C[C@@H]3CCN(c4cnc(-c5ccc(CN6CCS(=O)(=O)CC6)cc5)cn4)C3)c(C)n2n1` [Example 45, 6-{[(3R)-1-(5-{4-[(1,1-dioxidothiomorpholin-4-yl)methyl]phenyl}pyrazin-2-yl)pyrrolidin-3-yl]methyl}-2,5,7-trimethyl[1,2,4]triazolo[1,5-a]pyrimidine], the IC50 was 0.2 nM.
Turning to `Cc1nc2nc(C)c(C[C@@H]3CCN(c4cnc(-c5ccc(CN6CCC(S(C)(=O)=O)CC6)cc5)cn4)C3)c(C)n2n1` [Example 46, 2,5,7-trimethyl-6-({(3R)-1-[5-(4-{[4-(methylsulfonyl)piperidin-1-yl]methyl}phenyl)pyrazin-2-yl]pyrrolidin-3-yl}methyl)[1,2,4]triazolo[1,5-a]pyrimidine], the IC50 is 0.2 nM.
Same read-out and setting: in the case of `CC(=O)N1CCCN(Cc2ccc(-c3cnc(N4CC[C@@H](Cc5c(C)nc6nc(C)nn6c5C)C4)cn3)cc2)CC1` [Example 79, 1-[4-[[4-[5-[(3R)-3-[(2,5,7-trimethyl-[1,2,4]triazolo[1,5-a]pyrimidin-6-yl)methyl]pyrrolidin-1-yl]pyrazin-2-yl]phenyl]methyl]-1,4-diazepan-1-yl]ethanone] it was 0.316 nM.
Turning to `Cc1nc2nc(C)c(C[C@@H]3CCN(c4cnc(-c5ccc(CN6CCCN(C)CC6)cc5)cn4)C3)c(C)n2n1` [Example 83, (R)-2,5,7-trimethyl-6-((1-(5-(4-((4-methyl-1,4-diazepan-1-yl)methyl)phenyl)pyrazin-2-yl)pyrrolidin-3-yl)methyl)-[1,2,4]triazolo[1,5-a]pyrimidine], the IC50 is 0.794 nM.

Another experiment deals with T1, MCT4. The experiment can be described thus: cell-based.
Conditions: not given
In the case of `Cc1nc2nc(C)c(C[C@@H]3CCN(c4ccc(-c5ccc(CN6CCN(C)CC6)nc5)cn4)C3)c(C)n2n1` [Example 4, (R)-2,5,7-trimethyl-6-((1-(6′-((4-methylpiperazin-1-yl)methyl)-[3,3′-bipyridin]-6-yl)pyrrolidin-3-yl)methyl)-[1,2,4]triazolo[1,5-a]pyrimidine], the IC50 was 39.8 nM.
The compound `Cc1nc2nc(C)c(C[C@@H]3CCN(c4ccc(-c5ccc(CN6CCN(C)CC6)cc5)cn4)C3)c(C)n2n1` [Example 5, (R)-2,5,7-trimethyl-6-((1-(5-(4-((4-methylpiperazin-1-yl)methyl)phenyl)pyridin-2-yl)pyrrolidin-3-yl)methyl)-[1,2,4]triazolo[1,5-a]pyrimidine] gave an IC50 of 12.6 nM.
Same read-out and setting: as for `Cc1nc2nc(C)c(C[C@@H]3CCN(c4ncc(-c5ccc(CN6CCOCC6)cc5)cn4)C3)c(C)n2n1` [Example 6, (R)-4-(4-(2-(3-((2,5,7-trimethyl-[1,2,4]triazolo[1,5-a]pyrimidin-6-yl)methyl)pyrrolidin-1-yl)pyrimidin-5-yl)benzyl)morpholine], the figure is 7.94 nM; as for `Cc1nc2nc(C)c(C[C@@H]3CCN(c4ccc(-c5ccc(CN6CCN(C)CC6)cc5)nc4)C3)c(C)n2n1` [Example 8, (R)-2,5,7-trimethyl-6-((1-(6-(4-((4-methylpiperazin-1-yl)methyl)phenyl)pyridin-3-yl)pyrrolidin-3-yl)methyl)-[1,2,4]triazolo[1,5-a]pyrimidine], 25.1 nM.
